Results on nine compounds are retold here after article PMC6269755, “In Vitro Antiprotozoal Activity of Triterpenoid Constituents of Kleinia odora Growing in Saudi Arabia” (Molecules, 2013).

Molecules are shown by their SMILES. Read-outs that look alike come from different tables or passages of the source.

Data set [1] concerns Chloroquine-resistant P. falciparum K 1-strain. The data set can be described thus: Antiplasmodial activity, Malstat (pLDH) assay. It counts as cell-based, Plasmodium falciparum. As to conditions: for IC50: 72 h, read-out: P. falciparum IC50; for P. falciparum SI: selectivity index vs MRC-5 cytotoxicity. How it is done: (§1) The integrated panel of microbial screens and standard screening methodologies were adopted as previously described. All assays were performed in triplicate at the Laboratory of Microbiology, Parasitology and Hygiene at the University of Antwerp (Belgium). […] Selectivity of activity was assessed by simultaneous evaluation of cytotoxicity on a fibroblast (MRC-5) cell line.
Chloroquine-resistant P. falciparum K 1-strain was cultured in human erythrocytes O^+ at 37 °C under a low oxygen atmosphere (3% O2, 4% CO2, and 93% N2) in RPMI-1640, supplemented with 10% human serum. Infected human red blood cells (200 μL, 1% parasitaemia, 2% haematocrit) were added to each well and incubated for 72 h. After incubation, test plates were frozen at −20 °C. Parasite multiplication was measured using the Malstat assay, a colorimetric method based on the reduction of 3-acetyl pyridine adenine dinucleotide (APAD) by parasite-specific lactate-dehydrogenase (pLDH).

A short description of data set [2]: Cytotoxicity against MRC-5 cells, resazurin. It counts as cell-based. Particulars: human, MRC-5 SV2 fibroblast cells, pure compounds. How it is done: as §1
MRC-5 SV2 cells were cultivated in MEM, supplemented with L-glutamine (20 mM), 16.5 mM sodium hydrogen carbonate and 5% FCS. For the assay, 10^4 MRC-5 cells/well were seeded onto the test plates containing the pre-diluted sample and incubated at 37 °C and 5% CO2 for 72 h. Cell viability was assessed fluorimetrically after 4 h of addition of resazurin. Fluorescence was measured (excitation 550 nm, emission 590 nm) and the results were expressed as % reduction in cell viability compared to control.
In general terms: The colour change of resazurin is a common sign of viable cells or microbes.

For data set [3], the system named is L. infantum MHOM/MA(BE)/67 amastigotes. The data set can be described thus: Antileishmanial activity, intracellular amastigotes in primary peritoneal mouse macrophages. In kind it is cell-based, Leishmania infantum. As to conditions: for IC50: pure compounds, intracellular amastigotes, 5 days; for L. infantum SI: selectivity index vs MRC-5 cytotoxicity. How it is done: The integrated panel of microbial screens and standard screening methodologies were adopted as previously described. All assays were performed in triplicate at the Laboratory of Microbiology, Parasitology and Hygiene at the University of Antwerp (Belgium). […] Selectivity of activity was assessed by simultaneous evaluation of cytotoxicity on a fibroblast (MRC-5) cell line. […] L. infantum MHOM/MA(BE)/67 amastigotes were collected from the spleen of an infected donor hamster and used to infect primary peritoneal mouse macrophages. To determine in vitro antileishmanial activity, 3 × 10^4 macrophages were seeded in each well of a 96-well plate. After 2 days outgrowth, 5 × 10^5 amastigotes/well, were added and incubated for 2 h at 37 °C. Pre-diluted plant extracts were subsequently added and the plates were further incubated for 5 days at 37 °C and 5% CO2. Parasite burdens (mean number of amastigotes/macrophage) were microscopically assessed on 500 cells after Giemsa staining of the […] expressed as a percentage of the blank controls without plant extract.

The test system of data set [4] is T. cruzi Tulahuen CL2 (benznidazole-sensitive). The data set can be described thus: Antitrypanosomal activity, T. cruzi on MRC-5 cells. As to conditions: for IC50: pure compounds, 7 days; for T. cruzi SI: selectivity index vs MRC-5 cytotoxicity. It counts as cell-based, Trypanosoma cruzi. How it is done:
as §1
(§2) Trypanosoma brucei Squib-427 strain (suramin-sensitive) was cultured at 37 °C and 5% CO2 in Hirumi-9 medium, supplemented with 10% fetal calf serum (FCS). About 1.5 × 10^4 trypomastigotes/well were added to each well and parasite growth was assessed after 72 h at 37 °C by adding resazurin [35]. For Chagas disease, T. cruzi Tulahuen CL2 (benznidazole-sensitive) was maintained on MRC-5 cells in minimal essential medium (MEM) supplemented with 20 mM L-glutamine, 16.5 mM sodium hydrogen carbonate and 5% FCS. In the assay, 4 × 10^3 MRC-5 cells and 4 × 10^4 parasites were added to each well and after incubation at 37 °C for 7 days, Parasite growth was assessed by adding the […]. The color reaction was read at 540 nm after 4 h and absorbance values were expressed as a percentage of the blank controls.

Data set [5] concerns Trypanosoma brucei Squib-427 strain (suramin-sensitive). The data set can be described thus: Antitrypanosomal activity, T. brucei trypomastigotes, resazurin. In kind it is cell-based. As to conditions: for IC50: 72 h, pure compounds; for T. brucei SI: selectivity index vs MRC-5 cytotoxicity. How it is done:
as §1, §2

The test system of the next data set is L. donovani. As to conditions: cited from earlier work.
Another data set deals with T. cruzi. Also on record: method as in PMID 12802734. Particulars: ref 26; cited from earlier work.
In the next data set the test system is T. brucei. More on the design: method as in PMID 21782916, PMID 17637068. Particulars: ref 24, 25, cited from earlier work.
A further data set concerns P. falciparum. As to conditions: cited from earlier work; for IC50: converted value in brackets, read-out: antiplasmodial IC50.
In data set [6] the test system is peripheral blood mononuclear cells. Also on record: method as in PMID 22468852. Particulars: ref 31; cited from earlier work.
The mark [7] stands for this setting: Plasmodium falciparum, pure compounds, K1 strain.
The mark [8] stands for this setting: Leishmania infantum, Macrophage, 120 h.
Setting [9] is: Trypanosoma cruzi, TULAHUEN, MRC5, 168 h.
The mark [10] stands for this setting: at the highest concentration tested (64 µg/mL).

The IC50 is the concentration that gives 50% inhibition. The melting point is the temperature of the solid-liquid transition.

As to `C[C@@H]1CC[C@]2(C)CC[C@]3(C)C(=C[C@@H](O)C4[C@@]5(C)CC[C@H](O)C(C)(C)C5CC[C@]43C)C2[C@H]1C` (stereo partly drawn) [Cmpd. 5, 3β,11α-Dihydroxyurs-12-ene], the IC50 in [1] (setting [7]) was 23.9 ± 5.7 µM; in data set [3] (setting [8]), 3.2 ± 0.9 µM; in data set [4] (setting [9]), 8.1 ± 1.8 µM; in data set [5] (Trypanosoma brucei), 7.9 µM; in data set [5] it was 7.8 ± 1.8 µM. This compound also gave a concentration for half-maximal inhibition (IC50) at 72 h in data set [2] above 64 µM. For the same compound, the “L. infantum SI” value in [3] and in data set [3] (listed as Compound 5) was above 20 throughout. For the same compound, the “T. cruzi SI” value in data set [4] is above 7.9. In addition, the “T. brucei SI” value in data set [5] is above 8.2.

The compound `O=C(Cn1ccnc1[N+](=O)[O-])NCc1ccccc1` [Benznidazole, reference compound] returned an IC50 in data set [4] (setting [9]) of 1.9 ± 0.3 µM.

Turning to `Cc1ccc(C(=O)Nc2ccc(S(=O)(=O)O)c3cc(S(=O)(=O)O)cc(S(=O)(=O)O)c23)cc1NC(=O)c1cccc(NC(=O)Nc2cccc(C(=O)Nc3cc(C(=O)Nc4ccc(S(=O)(=O)O)c5cc(S(=O)(=O)O)cc(S(=O)(=O)O)c45)ccc3C)c2)c1` [Suramine, reference compound], the midpoint of inhibition in data set [5] (Trypanosoma brucei), the IC50, lay at 0.03 ± 0.01 µM.

Regarding `C[C@H]1[C@H](C)CC[C@]2(C(=O)O)CC[C@]3(C)C(=CC[C@@H]4[C@@]5(C)CC[C@H](O)C(C)(C)[C@@H]5CC[C@]43C)[C@H]12` [Cmpd. 3, 3β-hydroxy-urs-12-en-28-oic acid], the IC50 in data set [1] (setting [7]) was 29.7 ± 5.9 µM; in data set [3] (setting [8]), 7.4 ± 1.9 µM; with L. donovani (converted value in brackets, ref 27), 7.6 µM; in [4] (setting [9]), 8.8 ± 2.3 µM; in the data set with T. cruzi it was 21 µM; with T. brucei (converted value in brackets), 2.2 µM. The IC50 in the data set with P. falciparum (ref 28) was 6.8 µM; in the data set on P. falciparum (ref 29), 10.7 µM; in [5] (Trypanosoma brucei), 2.2 ± 0.6 µM. Moreover, in [1], the “P. falciparum SI” value is on record as below 1. In addition, the IC50 at 72 h in [2] amounted to 11.4 ± 2.1 µM. In addition, the “L. infantum SI” value in [3] is recorded as 1.5. Further, in the data set on L. donovani (ref 27), the “L. donovani IC50” value is recorded as 3.5 µg/mL. For the same compound, in data set [4], the “T. cruzi SI” value came out at 1.3. For the same compound, the “T. brucei IC50” value in the data set on T. brucei is listed as 1.0 ± 0.2 µg/mL. Moreover, the entries for the “antiplasmodial IC50” value in the data set on P. falciparum (ref 28) and in the data set with P. falciparum (ref 29) were 3.1 µg/mL and 4.9 µg/mL, respectively. Moreover, the “T. brucei SI” value in data set [5] stood at 5.2.

Compound `C[C@H]1[C@H](C)CC[C@@]2(C)[C@@H]1C1=CC[C@@H]3[C@@]4(C)CC[C@H](O)C(C)(C)[C@@H]4CC[C@@]3(C)[C@]1(C)C[C@@H]2O` [Cmpd. 4, urs-12-ene-3β,16β-diol] yielded a melting point of 221 °C. Moreover, the IC50 in [1] (setting [7]) fell in the range of 9.3 to 9.9 µM. Further, the IC50 in data set [1] (pure compounds, K1 strain) came out at 9.7 ± 3.2 µM. Also, in data set [1], the “P. falciparum SI” value was above 6.6. In data set [1] (listed as Brein (4)), the “P. falciparum SI” value is given as above 6.5. Further, in data set [2], the half-maximal inhibitory concentration (IC50) at 72 h was above 64 µM. Further, the IC50 in data set [3] (setting [8]) was in the range of 9.3 to 9.9 µM. For the same compound, in [3], the midpoint of inhibition, the IC50, lay at 9.3 ± 2.2 µM and the “L. infantum SI” value is listed as above 6.9. The “L. infantum SI” value in [3] (listed as Brein (4)) is above 6.5. This compound also had an IC50 in data set [4] (setting [9]) of 9.3 to 9.9 µM. Also, in data set [4], the IC50 was 9.9 ± 2.6 µM and the “T. cruzi SI” value is on record as above 6.5. The “T. cruzi SI” value in data set [4] (listed as Brein (4)) is recorded as above 6.5. The same compound returned an IC50 in data set [5] (Trypanosoma brucei) of 2.3 ± 0.4 µM. The “T. brucei SI” value in [5] is above 27.8. Also, in data set [5] (listed as Brein (4)), the “T. brucei SI” value is above 27.8.

Consider `C[C@@H]1CC[C@]2(C)CC[C@]3(C)C(=C[C@@H](O)C4[C@@]5(C)CC[C@H](O)C(C)(C)C5CC[C@]43C)C2[C@H]1C` (stereo partly drawn) (hydrate or solvate) [Cmpd. 5, 3β,11α-Dihydroxyurs-12-ene], for which the melting point is 205 °C.

On to `CCCCCCCCCCCCCCCCOP(=O)([O-])OCC[N+](C)(C)C` [Miltefosine, reference compound], for which the IC50 was 10.4 ± 2.1 µM in [3] (setting [8]) and 9.31 µM in the data set with L. donovani (ref 31).

As for `C[C@@H]1CCC23CC[C@]4(C)[C@@](C=CC5[C@@]6(C)CC[C@H](O)C(C)(C)C6CC[C@]54C)(OC2=O)C3[C@H]1C` (stereo partly shown) [Cmpd. 6, 3-Hydroxy-13,28-epoxyurs-11-en-28-one], in data set [6], the “cytotoxicity towards peripheral blood mononuclear cells” value is given as “without cytotoxicity”. The IC50 is above 64 µM in [1] (setting [7]); above 64 µM in [3] (setting [8]); 192 µM in the data set on L. donovani (ref 31); above 64 µM in data set [4] (setting [9]); 40.9 ± 8.1 µM in [5] (Trypanosoma brucei). Also, the “antiprotozoal activity (P. falciparum)” value in data set [1] (setting [10]) is “devoid of any antiprotozoal activity”. The compound also showed an IC50 at 72 h in [2] above 64 µM. Also, the “antiprotozoal activity (L. infantum)” value in [3] (setting [10]) is recorded as “devoid of any antiprotozoal activity”. Further, in data set [4] (setting [10]), the “antiprotozoal activity (T. cruzi)” value is reported as “devoid of any antiprotozoal activity”.

In the case of `CCN(CC)CCCC(C)Nc1ccnc2cc(Cl)ccc12` (stereo not shown) [Chloroquine, reference compound], in data set [1] (Plasmodium falciparum), the IC50 amounted to 0.3 ± 0.05 µM.
